# Experiments:
# Assay type in all cases: cell-based, human
# complement C5 protein = experiment: Secreted complement protein ELISA, Huh-7 cells; conditions: for C5 secretion, percent maximum reduction in protein levels: Huh-7, 72 h, ± standard deviation
# Description: (§1) In this example, protein secretion from cells grown in culture in the presence of compound of interest was analyzed by enzyme linked immunosorbent assay (ELISA). In some cases, cultured cells were treated with cytokines and the compound of interest to mimic an inflammatory state. The method can be used to determine the effect of compounds, including those in the present invention, on the secretion of specific proteins from cells grown in culture under basal and cytokine stimulated (i.e. inflammatory) conditions (Table 7, FIGS. 5 and 6).
# (§2) Huh-7 cells (JCRB Cell Bank) were introduced to 24-well plates in 500 μL DMEM supplemented with 10% (v/v) FBS, 100 U/mL penicillin, 100 ug/mL streptomycin and 5 ug/mL plasmocin (all reagents from Gibco, except for the former, which comes from Invivogen) at 200 000 cells/well. After 24 h, cells were treated with the compound of interest and/or cytokines in DMEM with 10% FBS containing 0.1% DMSO for a total treatment time of 72 h. Fresh media containing compounds and/or cytokines was introduced in the final 24 h of the experiment. At harvest, media were collected, debris was removed by brief centrifugation, and ELISA assays for the indicated proteins were performed as per the manufacturer's protocol. To correct for differences in cell numbers, values obtained for complement proteins were normalized to values for transferrin. HepG2 cells (ATCC) were cultured in MEM containing 10% FBS, 1× non-essential amino acids, 1 mM sodium pyruvate, 2 mM L-glutamine, 100 U/mL penicillin, 100 ug/mL streptomycin and 5 ug/mL plasmocin. Serum amount was reduced to 0.5% when compounds were present. Treatment combinations and timing were as described above for Huh-7 cells. Primary human hepatocytes (CellzDirect/Life Technologies) were plated in collagen coated 96-well plates at 70 000 cells/well, then overlaid with Matrigel™ as recommended by the supplier. Cells were treated with compounds of interest with or without the indicated cytokines for a total of 72 h in the recommended media supplemented with 10% FBS and 0.1% DMSO (v/v). Media were collected for measurements of secreted proteins.
# (§3) The ELISA kits for detection of complement C3, C4, C5 and C9 were obtained from AssayPro (St. Charles, Mo.), while the ELISA reagents for transferrin detection were from Bethyl Laboratories (Montgomery, Tex.). Data were collected on a Thermo Scientific Multiskan GO apparatus. Downregulation of expression of components of the complement cascade will result in reduced activity of the pathway and thus will constitute a positive result.
# complement C4 protein = experiment: Secreted complement protein ELISA, Huh-7 cells; conditions: for C4 secretion, percent maximum reduction in protein levels: Huh-7, 72 h, ± standard deviation
# Description: as §1, §2, §3
# complement C3 protein = experiment: Secreted complement protein ELISA, Huh-7 cells; conditions: for C3 secretion, percent maximum reduction in protein levels: Huh-7, 72 h, ± standard deviation
# Description: as §1, §2, §3
# C4a/C4b mRNA [1] = experiment: Complement gene mRNA expression, TaqMan real-time PCR, Huh-7 cells; conditions: for IC50: Homo sapiens
# Description: (§4) In this example, mRNA levels from cultured cells were quantitated. The assay can be used to determine the effect of compound(s) on regulating mRNA levels, including those compounds in the present invention. Complement genes are expressed at high endogenous levels, but their expression can also be stimulated with various cytokines in inflammatory conditions. Experiments in this example target both basal and inflammatory complement gene expression. Compound mediated changes in gene expression and resulting mRNA levels are presented in Tables 2, 3 and 4 as well as FIGS. 1, 2, 3 and 4 below.
# (§5) Huh-7 and HepG2 cells are liver-derived cell lines and are models for what can occur in the liver. Huh-7 cells (JCRB Cell Bank) were introduced to 96-well plates (^˜2.5×10^5 per well) in 100 μL DMEM containing 10% (v/v) FBS, 100 U/mL penicillin, 100 ug/mL streptomycin and 5 ug/mL plasmocin (all reagents from Gibco, except for the former, which was obtained from Invivogen). After 24 h, Huh-7 cells were treated with compounds in the same media formulation used for plating, and supplemented with 0.1% DMSO for the amount of time indicated in tables 2, 3, and 4. For select experiments, 24 h post-plating, cells were treated with cytokines and the compound of interest simultaneously, for a total treatment time of 48 h. Alternatively, 24 h after plating, cells were pre-treated with cytokines for 24 h before adding the compound of interest for 48 h. HepG2 cells (ATCC) were cultured in 96-well plates (^˜2.5×10^5 per well) in MEM containing 10% FBS, 1× non-essential amino acids, 1 mM sodium pyruvate, 2 mM L-glutamine, 100 U/mL penicillin, 100 ug/mL streptomycin and 5 ug/mL plasmocin. Serum amount was reduced to 0.5% for treatments with compound or cytokines. Timing of treatment of HepG2 cells with compounds and cytokines was as described for Huh-7 cells. Primary human hepatocytes (CellzDirect/Life Technologies) were plated in collagen coated 96-well plates at 70 000 cells/well, then overlaid with Matrigel™ as recommended by the supplier. Cells were treated with compounds of interest and/or cytokines for the indicated time points in the recommended media supplemented with 0.1% DMSO and 10% FBS (v/v). Cells were harvested by mRNA Catcher PLUS Kit (Life Technologies) followed by real-time PCR using the RNA UltraSense One-Step qRT-PCR System. The level of the mRNA of interest was measured by TaqMan real-time PCR relative to the endogenous control cyclophilin A in the same sample. Data were acquired using the ViiA-7 Real Time PCR System (Applied Biosystems).
# (§6) Downregulation of expression of components of the complement cascade will result in reduced activity of the pathway and thus will constitute a positive result. Tables 2 and 3 list the concentration of compounds at which the level of the indicated mRNA is reduced by 50%, as well as the duration of treatment with compound. Table 4 lists the maximum reduction in the indicated mRNA measured in primary human hepatocytes treated with compounds for up to 72 hours. FIGS. 1, 2, 3 and 4 show effects of compounds on cytokine-induced (i.e. inflammatory) expression of complement genes in Huh-7 cells and HepG2 cells.
# C5 mRNA [2] = experiment: as above; conditions: for IC50: Homo sapiens
# Description: as §4, §5, §6
# C4a/C4b mRNA [3] = experiment: Complement gene mRNA expression, TaqMan real-time PCR, HepG2 cells; conditions: for IC50: Homo sapiens, HepG2, 72 h, read-out: C4a/C4b (72 h) mRNA, half maximal inhibitory concentration (IC50)
# Description: as §4, §5, §6
# C5 mRNA [4] = experiment: as above; conditions: for IC50: Homo sapiens, HepG2, 72 h, read-out: C5 (72 h) mRNA, half maximal inhibitory concentration (IC50)
# Description: as §4, §5, §6
# [5] = read-out: C4a/C4b (72 h) mRNA, half maximal inhibitory concentration (IC50), Huh-7, 72 h treatment
# [6] = read-out: C5 (72 h) mRNA, half maximal inhibitory concentration (IC50), Huh-7, 72 h treatment
# [7] = 30 uM, Huh-7 treated simultaneously with IL-6
# [8] = Huh-7 pre-treated with cytokines
# [9] = Huh-7 treated simultaneously with cytokines
# [10] = HepG2 pre-treated with cytokines
# [11] = HepG2 treated simultaneously with cytokines
smiles,measurement,setting,value
"Cc1sc2c(c1C)C(c1ccc(Cl)cc1)=N[C@@H](CC(=O)OC(C)(C)C)c1nnc(C)n1-2 [JQ1, (S)-tert-butyl 2-(4-(4-chlorophenyl)-2,3,9-trimethyl-6H-thieno[3,2-f][1,2,4]triazolo[4,3-a][1,4]diazepin-6-yl)acetate, reference compound]","C5 secretion, percent maximum reduction in protein levels",complement C5 protein; 0.75 uM,50 ± 13%
same,"C4 secretion, percent maximum reduction in protein levels",complement C4 protein; 0.75 uM,81 ± 6%
same,"C3 secretion, percent maximum reduction in protein levels",complement C3 protein; 0.75 uM,99 ± 1%
same,IC50,C4a/C4b mRNA [1]; [5],0.07 µM
same,IC50,"C4a/C4b mRNA [1]; Huh-7, 48 h treatment (Table 3), read-out: mRNA expression in Huh-7 cells: IC50 (uM), C4",0.065 µM
same,IC50,C5 mRNA [2]; [6],0.27 µM
same,IC50,C4a/C4b mRNA [3],0.25 µM
same,IC50,C5 mRNA [4],0.46 µM
"COc1cc(OC)c2c(=O)[nH]c(-c3cc(C)c(OCCO)c(C)c3)nc2c1 [RVX000222, 2-(4-(2-hydroxyethoxy)-3,5-dimethylphenyl)-5,7-dimethoxyquinazolin-4(3H)-one]","C5 secretion, percent maximum reduction in protein levels",complement C5 protein; 30 uM,53 ± 7%
same,secretion of C5 protein (FIG. 5),complement C5 protein; [7],reduces secretion
same,"C4 secretion, percent maximum reduction in protein levels",complement C4 protein; 30 uM,79 ± 3%
same,secretion of C4 protein (FIG. 5),complement C4 protein; [7],reduces secretion
same,"C3 secretion, percent maximum reduction in protein levels",complement C3 protein; 30 uM,87 ± 9%
same,secretion of C3 protein (FIG. 5),complement C3 protein; [7],reduces secretion
same,IC50,C4a/C4b mRNA [1]; [5],5.4 µM
same,IC50,"C4a/C4b mRNA [1]; Huh-7, 48 h treatment, read-out: C4a/C4b (48 h) mRNA, half maximal inhibitory concentration (IC50)",6.3 µM
same,expression of complement component 4 at the mRNA level (FIG. 3),C4a/C4b mRNA [1]; [8],reduces expression
same,expression of complement component 4 at the mRNA level (FIG. 1),C4a/C4b mRNA [1]; [9],reduces expression
same,IC50,C5 mRNA [2]; [6],21.8 µM
same,IC50,"C5 mRNA [2]; Huh-7, 48 h treatment, read-out: C5 (48 h) mRNA, half maximal inhibitory concentration (IC50)",> 30 µM
same,expression of complement component 5 at the mRNA level (FIG. 3),C5 mRNA [2]; [8],reduces expression
same,expression of complement component 5 at the mRNA level (FIG. 1),C5 mRNA [2]; [9],reduces expression
same,expression of complement component 4 at the mRNA level (FIG. 4),C4a/C4b mRNA [3]; [10],reduces expression
same,expression of complement component 4 at the mRNA level (FIG. 2),C4a/C4b mRNA [3]; [11],reduces expression
same,IC50,C4a/C4b mRNA [3],10 µM
same,expression of complement component 5 at the mRNA level (FIG. 4),C5 mRNA [4]; [10],reduces expression
same,expression of complement component 5 at the mRNA level (FIG. 2),C5 mRNA [4]; [11],reduces expression
same,IC50,C5 mRNA [4],20 µM
